Experimental data: ChEMBL document CHEMBL1201862, “PubChem BioAssay data set” (2004)
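Five compound concentrations were applied to cells in 96-well plates for 48 hours; endpoints were derived by simple linear interpolation of the resulting dose-response curve. Abbreviation: GI50, concentration required for 50% inhibition of growth.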 Active and inactive are the calls of the source. No stated cut-off is given here; in the data, active = GI50 up to about 1.1 µM and inactive = higher.

Experiments:
Assay in all cases: NCI tumour cell line growth inhibition, 48 h
[1] = tested on: LOX IMVI
[2] = tested on: CCRF-CEM
[3] = tested on: MOLT-4
[4] = tested on: COLO 205
[5] = tested on: OVCAR-5
[6] = tested on: HT-29
[7] = tested on: Malme-3M
[8] = tested on: SF-539
[9] = tested on: M14
[10] = tested on: HCT-116
[11] = tested on: SF-295
[12] = tested on: NCI-H23
[13] = tested on: 786-0
[14] = tested on: TK-10
[15] = tested on: CAKI-1
[16] = tested on: SW-620
[17] = tested on: KM-20L2
[18] = tested on: SK-MEL-2
[19] = tested on: PC-3
[20] = tested on: DU-145

SMILES: CCCCCCCCCC1CC(=O)OC23CCCC(=O)C12O3 (centres undefined)
- GI50 [1]: 70.5 µM (inactive)
- GI50 [2]: > 100 µM (inactive)
- GI50 [3]: 26.7 µM (inactive)
- GI50 [4]: > 100 µM (inactive)
- GI50 [5]: > 100 µM (inactive)
- GI50 [6]: > 100 µM (inactive)
- GI50 [7]: > 100 µM (inactive)
- GI50 [8]: > 100 µM (inactive)
- GI50 [9]: > 100 µM (inactive)
- GI50 [10]: > 100 µM (inactive)
- GI50 [11]: > 100 µM (inactive)
- GI50 [12]: > 100 µM (inactive)
- GI50 [13]: > 100 µM (inactive)
- GI50 [14]: > 100 µM (inactive)
- GI50 [15]: > 100 µM (inactive)
- GI50 [16]: > 100 µM (inactive)
- GI50 [17]: > 100 µM (inactive)
- GI50 [18]: > 100 µM (inactive)

SMILES: O=S(=O)(c1ccccc1)C1CN2OC1(S(=O)(=O)c1ccccc1)CC21CCCCC1 (centres undefined)
- GI50 [1]: > 100 µM (inactive)
- GI50 [2]: > 100 µM (inactive)
- GI50 [3]: 40.7 µM (inactive)
- GI50 [4]: > 100 µM (inactive)
- GI50 [5]: > 100 µM (inactive)
- GI50 [6]: > 100 µM (inactive)
- GI50 [7]: > 100 µM (inactive)
- GI50 [8]: > 100 µM (inactive)
- GI50 [9]: > 100 µM (inactive)
- GI50 [10]: > 100 µM (inactive)
- GI50 [11]: > 100 µM (inactive)
- GI50 [12]: > 100 µM (inactive)
- GI50 [13]: > 100 µM (inactive)
- GI50 [14]: > 100 µM (inactive)
- GI50 [15]: 73.3 µM (inactive)
- GI50 [16]: > 100 µM (inactive)
- GI50 [17]: > 100 µM (inactive)
- GI50 [18]: > 100 µM (inactive)

SMILES: CC1=C2C(=O)C(C)(C)C=C2C(=O)[C@](C)(O)C12CC2 [DEHYDROILLUDIN M]
- GI50 [1]: 0.402 µM (active)
- GI50 [2]: > 1 µM (active)
- GI50 [3]: > 1 µM (active)
- GI50 [4]: > 1 µM (active)
- GI50 [5]: > 1 µM (active)
- GI50 [6]: 0.248 µM (active)
- GI50 [7]: 0.634 µM (active)
- GI50 [8]: > 1 µM (active)
- GI50 [9]: 0.678 µM (active)
- GI50 [10]: 0.265 µM (active)
- GI50 [11]: 0.585 µM (active)
- GI50 [12]: 0.499 µM (active)
- GI50 [13]: 0.537 µM (active)
- GI50 [14]: > 1 µM (active)
- GI50 [15]: > 1 µM (active)
- GI50 [16]: > 1 µM (active)
- GI50 [17]: 0.527 µM (active)
- GI50 [18]: 0.614 µM (active)

SMILES: COc1ccccc1NC(=O)CC(=O)n1nc(C)c(/N=N/c2ccccc2F)c1C
- GI50 [1]: > 100 µM (inactive)
- GI50 [2]: > 10 µM (inactive)
- GI50 [3]: > 31.6 µM (inactive)
- GI50 [4]: > 100 µM (inactive)
- GI50 [5]: > 100 µM (inactive)
- GI50 [6]: > 100 µM (inactive)
- GI50 [7]: > 10 µM (inactive)
- GI50 [8]: 21.5 µM (inactive)
- GI50 [9]: > 100 µM (inactive)
- GI50 [10]: > 31.6 µM (inactive)
- GI50 [11]: > 52 µM (inactive)
- GI50 [12]: > 96.2 µM (inactive)
- GI50 [13]: 76.6 µM (inactive)
- GI50 [14]: > 100 µM (inactive)
- GI50 [15]: > 100 µM (inactive)
- GI50 [16]: > 100 µM (inactive)
- GI50 [17]: > 100 µM (inactive)
- GI50 [18]: > 100 µM (inactive)

SMILES: CSc1ccc2c(cc1=O)C(NC(=O)c1ccccc1)CCc1cc(O)c(O)c(O)c1-2 (centres undefined)
- GI50 [1]: 16.4 µM (inactive)
- GI50 [2]: 6.73 µM (inactive)
- GI50 [3]: 21.3 µM (inactive)
- GI50 [4]: 23.2 µM (inactive)
- GI50 [5]: > 100 µM (inactive)
- GI50 [6]: 32.3 µM (inactive)
- GI50 [7]: 7.14 µM (inactive)
- GI50 [8]: 3.15 µM (inactive)
- GI50 [9]: 15.6 µM (inactive)
- GI50 [10]: 18.5 µM (inactive)
- GI50 [11]: 4.22 µM (inactive)
- GI50 [12]: 4.37 µM (inactive)
- GI50 [13]: 29.4 µM (inactive)
- GI50 [14]: 52.8 µM (inactive)
- GI50 [15]: 27.6 µM (inactive)
- GI50 [16]: 15.7 µM (inactive)
- GI50 [17]: 1.81 µM (inactive)
- GI50 [18]: 5.5 µM (inactive)

SMILES: COc1cc(/C=C(\C#N)C(=O)c2ccccc2)ccc1O
- GI50 [1]: > 100 µM (inactive)
- GI50 [2]: 82.8 µM (inactive)
- GI50 [3]: > 100 µM (inactive)
- GI50 [4]: > 100 µM (inactive)
- GI50 [5]: > 100 µM (inactive)
- GI50 [6]: > 100 µM (inactive)
- GI50 [7]: > 100 µM (inactive)
- GI50 [8]: > 100 µM (inactive)
- GI50 [9]: > 100 µM (inactive)
- GI50 [10]: > 100 µM (inactive)
- GI50 [11]: > 100 µM (inactive)
- GI50 [12]: > 100 µM (inactive)
- GI50 [13]: > 100 µM (inactive)
- GI50 [14]: > 100 µM (inactive)
- GI50 [15]: > 100 µM (inactive)
- GI50 [16]: > 100 µM (inactive)
- GI50 [17]: > 100 µM (inactive)
- GI50 [18]: > 100 µM (inactive)

SMILES: COc1cc2c(cc1OC)C(CC(=O)NN=C(C)C)NCC2 (centres undefined)
- GI50 [1]: > 100 µM (inactive)
- GI50 [2]: > 100 µM (inactive)
- GI50 [3]: > 100 µM (inactive)
- GI50 [4]: > 100 µM (inactive)
- GI50 [5]: > 100 µM (inactive)
- GI50 [6]: > 100 µM (inactive)
- GI50 [7]: > 100 µM (inactive)
- GI50 [8]: > 100 µM (inactive)
- GI50 [9]: > 100 µM (inactive)
- GI50 [10]: > 100 µM (inactive)
- GI50 [11]: > 100 µM (inactive)
- GI50 [12]: > 100 µM (inactive)
- GI50 [13]: > 100 µM (inactive)
- GI50 [14]: > 100 µM (inactive)
- GI50 [15]: > 100 µM (inactive)
- GI50 [16]: > 100 µM (inactive)
- GI50 [17]: > 100 µM (inactive)
- GI50 [18]: > 100 µM (inactive)

SMILES: NS(=O)(=O)OCCCCCCCOS(N)(=O)=O
- GI50 [1]: 161 µM (inactive)
- GI50 [2]: 46.8 µM (inactive)
- GI50 [3]: 24.2 µM (inactive)
- GI50 [4]: 394 µM (inactive)
- GI50 [5]: 408 µM (inactive)
- GI50 [6]: 504 µM (inactive)
- GI50 [7]: 437 µM (inactive)
- GI50 [8]: 138 µM (inactive)
- GI50 [9]: 187 µM (inactive)
- GI50 [10]: 309 µM (inactive)
- GI50 [11]: > 92.9 µM (inactive)
- GI50 [12]: 245 µM (inactive)
- GI50 [13]: 144 µM (inactive)
- GI50 [19]: 249 µM (inactive)
- GI50 [20]: 124 µM (inactive)
- GI50 [14]: 649 µM (inactive)
- GI50 [15]: 84.3 µM (inactive)
- GI50 [16]: 334 µM (inactive)
- GI50 [17]: 488 µM (inactive)
- GI50 [18]: 364 µM (inactive)

SMILES: N#CCCN(CCC#N)c1ccc(/C=C(/NC(=O)c2cc([N+](=O)[O-])ccc2Cl)C(=O)N=[N+]=[N-])cc1
- GI50 [1]: > 100 µM (inactive)
- GI50 [2]: > 100 µM (inactive)
- GI50 [3]: > 100 µM (inactive)
- GI50 [4]: > 100 µM (inactive)
- GI50 [5]: > 100 µM (inactive)
- GI50 [6]: > 100 µM (inactive)
- GI50 [7]: > 100 µM (inactive)
- GI50 [8]: > 100 µM (inactive)
- GI50 [9]: > 100 µM (inactive)
- GI50 [10]: > 100 µM (inactive)
- GI50 [11]: > 100 µM (inactive)
- GI50 [12]: > 100 µM (inactive)
- GI50 [13]: > 100 µM (inactive)
- GI50 [14]: > 100 µM (inactive)
- GI50 [15]: > 100 µM (inactive)
- GI50 [16]: > 100 µM (inactive)
- GI50 [17]: > 100 µM (inactive)
- GI50 [18]: > 100 µM (inactive)
